Experimental data: patent US8653071B2, “α4β2 neuronal nicotinic acetylcholine receptor ligands” (Suven Life Sciences Limited, priority 2009, dated 2014)
Counter-ions that a name gives are not always drawn.

Each compound was assayed against Nicotinic Acetylcholine α4β2 Receptor (UniProt P09483+P12390) (assay: Binding assay for human or rat nicotinic acetylcholine α4β2 receptor ([3H]Cytisine displacement)). Settings: [3H]Cytisine 2.5 nM; rat brain frontal cortex or recombinant human receptor in CHO cells (not specified which); read-out: Ki.
Description: Binding Assay for Human or Rat Nicotinic Acetylcholine α4β2 Receptor
• Receptor source: Rat brain frontal cortex or recombinant human cDNA expressed in CHO cells • Radioligand: [^3H]Cytisine 15-40 Ci/mmole • Final ligand concentration—[2.5 nM] • Non-specific determinant: Epibatidine—[0.1 μM] • Reference compound: Epibatidine • Positive control: Epibatidine Incubation Conditions:
Increasing concentrations of test compounds or standard were incubated with membrane receptors and radioligand in 120 mM NaCl, 2.5 mM KCl, 1 mM CaCl2, 1 mM MgCl2 and 50 mM TRIS-HCl (pH 7.4) for 60 minutes at room temperature. The reaction was terminated by rapid vacuum filtration onto the glass fiber filters. Radioactivity trapped onto the filters was determined and compared to the control values in order to ascertain any interactions of the test compound(s) with either cloned human or rat receptor binding site.
Literature Reference: Bunnelle W. H., Daanen J. F., Ryther K. B., Schrimpf M. R., Dart M. J., Gelain A., Meyer M. D., Frost J. M., Anderson D. J., Buckley M., Curzon P., Cao Y-J., Puttfarcken P., Searle X., Ji J., Putman C. B., Surowy C., Toma L. and Barlocco D. Structure-Activity Studies and Analgesic Efficacy of N-(3-Pyridinyl)-Bridged Bicyclic Diamines, Exceptionally Potent Agonists at Nicotinic Acetylcholine Receptors. J. Med. Chem. 2007, 50, […].

Q: With `CNCC1CC2CC2N1C(=O)c1ccco1` (single isomer, unassigned) [Example 3, Furan-2-yl-(3-methylaminomethyl-2-azabicyclo[3.1.0]hex-2-yl)methanone tartarate] as the compound, how does the Ki read?
A: 41.7 nM

Q: `CCNCC1CC2CC2N1c1cncc(Br)c1` (stereo not shown) [Example 5, N-[2-(5-Bromopyridin-3-yl)-2-azabicyclo[3.1.0]hex-3-ylmethyl]ethylamine tartarate] was tested. Which Ki did it give?
A: 700 nM

Q: `CNCC1CC2CC2N1c1cncc(OC)c1` (stereo not shown) [Example 14, N-[2-(5-Methoxypyridin-3-yl)-2-azabicyclo[3.1.0]hex-3-ylmethyl]methylamine fumarate] was tested. Which Ki did it give?
A: 179 nM

Q: With `CNCC1CC2CC2N1c1cncc(OC(C)C)c1` (stereo not shown) [Example 15, N-[2-(5-Isopropoxypyridin-3-yl)-2-azabicyclo[3.1.0]hex-3-ylmethyl]methylamine] as the compound, how does the Ki read?
A: 383 nM

Q: With `NCC1CC2CC2N1c1cncc(Sc2ccccc2)c1` (stereo not shown) [Example 16, [2-(5-Phenylsulfanylpyridin-3-yl)-2-azabicyclo[3.1.0]hex-3-yl]methylamine fumarate] as the compound, how does the Ki read?
A: 451 nM

Q: How did the Ki turn out when `CNCC1CC2CC2N1c1nccnc1O` (stereo not shown) [Example 20, N-[2-(3-Hydroxypyrazin-2-yl)-2-azabicyclo[3.1.0]hex-3-ylmethyl] methylamine] was run?
A: 13 nM

Q: `NCC1CC2CC2N1c1ccc(C(F)(F)F)nc1` (stereo not shown) [Example 24, N-(2-(2-trifluoromethylpyridin-5-yl)-2-azabicyclo[3.1.0]hex-3-ylmethyl) amine fumarate] was tested. Which Ki did it give?
A: 681 nM

Q: How did the Ki turn out when `NCC1CC2CC2N1c1ccc(Cl)nc1` (stereo not shown) [Example 25, N-(2-(2-chloropyridin-5-yl)-2-azabicyclo[3.1.0]hex-3-ylmethyl) amine fumarate] was run?
A: 6.9 nM

Q: How did the Ki turn out when `Cc1cncc(N2C(CN)CC3CC32)c1` (stereo not shown) [Example 26, N-(2-(3-methylpyridin-5-yl)-2-azabicyclo[3.1.0]hex-3-ylmethyl) amine fumarate] was run?
A: 5.7 nM

Q: Which Ki does the source give for `CNCC1CC2CC2N1c1cncc(C)c1` (stereo not shown) [Example 27, N-(2-(3-methylpyridin-5-yl)-2-azabicyclo[3.1.0]hex-3-ylmethyl)methyl amine bistartarate] here?
A: 253 nM

Q: With `NCC1CC2CC2N1c1cncc(C(F)(F)F)c1` (stereo not shown) [Example 28, N-(2-(3-trifluoromethylpyridin-5-yl)-2-azabicyclo[3.1.0]hex-3-ylmethyl) amine fumarate] as the compound, how does the Ki read?
A: 140 nM

Q: `NCC1CC2CC2N1c1cnc2ccccc2c1` (stereo not shown) [Example 29, N-(2-(quinolin-3-yl)-2-azabicyclo[3.1.0]hex-3-ylmethyl) amine fumarate] was tested. Which Ki did it give?
A: 135 nM

Q: With `CNCC1CC2CC2N1c1cncc(C(F)(F)F)c1` (stereo not shown) [Example 30, N-(2-(3-trifluoromethylpyridin-5-yl)-2-azabicyclo[3.1.0]hex-3-ylmethyl) methylamine fumarate] as the compound, how does the Ki read?
A: 247 nM

Q: How did the Ki turn out when `CNCC1CC2CC2N1c1cnc2ccccc2c1` (stereo not shown) [Example 31, N-(2-(quinolin-3-yl)-2-azabicyclo[3.1.0]hex-3-ylmethyl) methylamine fumarate] was run?
A: 1650 nM

Q: `CNCC1CC2CC2N1C(=O)c1cc2ccccc2o1` (stereo not shown) [Example 32, Benzofuran-2-yl-(3-methylaminomethyl-2-azabicyclo[3.1.0]hex-2-yl)methanone tartrate] was tested. Which Ki did it give?
A: 38.3 nM

Q: `CNCC1CC2CC2N1C(=O)c1cc2cccc(Br)c2o1` (stereo not shown) [Example 33, (7-Bromo benzofuran-2-yl)-(3-methylaminomethyl-2-azabicyclo[3.1.0]hex-2-yl) methanone tartrate] was tested. Which Ki did it give?
A: 3000 nM

Q: With `NCC1CC2CC2N1C(=O)c1cc2ccccc2[nH]1` (stereo not shown) [Example 34, (3-Aminomethyl-2-azabicyclo[3.1.0]hex-2-yl)-(1H-indol-2-yl)-methanone] as the compound, how does the Ki read?
A: 55 nM

Q: Which Ki does the source give for `NCC1CC2CC2N1C(=O)c1cncc(Br)c1` (stereo not shown) [Example 36, (3-Aminomethyl-2-azabicyclo[3.1.0]hex-2-yl) (5-bromo pyridin-3-yl) methanone tartrate] here?
A: 17.8 nM

Q: With `NCC1CC2CC2N1C(=O)c1ccccn1` (stereo not shown) [Example 37, (3-Aminomethyl-2-azabicyclo[3.1.0]hex-2-yl) pyridin-2-yl methanone tartrate] as the compound, how does the Ki read?
A: 11.6 nM
